The text below walks through data of patent US20170266123A1, “COATED PARTICLES FOR DRUG DELIVERY” (Dana-Farber Cancer Institute, Inc., priority 2014, published 2017).

For one series, the system named is 4T1 cells. Kind of series: Viability of 4T1 cells exposed to Dox or Dox-laden nanoparticles through matrigel. The format is cell-based. To be noted: 500 ng/mL Dox; 3, 6 and 24 hours. On the procedure:
Nanoparticles with doxorubicin in the core were formed as described in Example 1, except doxorubicin was added to the organic solvent. The particles were coated as described in Example 10. To test the cell viability for cells exposed to doxorubicin particles, 500 ng/mL of Dox or Dox-laden nanoparticles were added to matrigel on top chamber of a 24 well plates seeded with 4T1 cells. Plates were incubated at 37° C., while gently shaken. The viability was measured at 3 hours, 6 hours, and 24 hours. Cell viability was determined as described in Example 5. For the mammosphere assay, 4T1 cells were seeded at 1000 cells/150 uL/well in 96 well ultra-low adherence plate. The remaining 4T1 cells after treatment were harvested and filtered and the number of mammospheres counted using microscopy.

Series [1] relates to Calu6 (human lung cancer). Kind of series: PTX cytotoxicity, MTT assay, Calu6. Particulars: Calu-6, Calu6, 72 hours. The format is cell-based. On the procedure:
(§1) Cells were seeded at a density of 10,000 cells per well in a 96-well and incubated overnight in 200 μL of complete medium. The culture medium was then replaced with 198 μL of fresh medium, two free drug/DMSO solution or NP suspensions in the final concentration ranging from 0.001 to 10,000 nM. After 72 hours of incubation, the medium was replaced with 100 μL of fresh medium containing 13% MTT and incubated for 3.5 hours. Finally, 100 μL of the solubilization/stop solution comprising 20% SDS, 0.02% v/v acetic acid, and 50% v/v DMSO was added to each well, and the absorbance was read at 560 nm by the microplate reader. Cell viability was calculated by dividing the absorbance of treated cells by that of untreated cells after subtracting the absorbance of cell-free medium from each. Here, the untreated cells were those provided with no drug but handled equally otherwise, and the cell-free medium was the medium mixed with MTT solution and stop-solution without cells.
(§2) Cell viability was determined as described in Example 5.
(Formazan colour is commonly taken as a measure of viable cells.)

In series [2] the test system is SKOV-3 (human ovarian cancer). Kind of series: PTX cytotoxicity, MTT assay, SKOV3. The series is classed as cell-based. To be noted: SK-OV-3, SKOV3, 72 hours. On the procedure:
as §1, §2

For the next series, the system named is BR5FVB1-Akt cells. Kind of series: Survival study in immunocompetent murine model of ovarian cancer. The series is classed as in vivo, mouse. To be noted: FVB mice, IP 5 mg/kg twice weekly, five doses. On the procedure: The BR5FVB1-Akt mouse ovarian cancer cell line was cultured in DMEM supplemented with 10% FBS and 1% penicillin/streptomycin at 37° C. with 5% CO2. Subconfluent BR5FVB1-Akt cells were trypsinized, washed, and suspended in opti-MEM as a single-cell suspension. Six week-old female FVB mice were injected IP with a total volume of 400 μl opti-MEM containing 3.75×10^6 BR5FVB1-Akt cells.
Mice were sacrificed by CO2 asphyxiation upon ascites development. Their peritoneal cavities were opened postmortem to observe tumor location and extent of metastasis in the peritoneal region. All FVB mice inoculated with BR5FVB1-Akt cells developed tumors. Tumors developed gradually and manifested by formation of ascites in the peritoneal cavity. Tumors were detectable post-mortem as nodules of various sizes and number on the peritoneal wall or adhered to the intestine.
Statistical analysis was performed with GraphPad Prism 5 (La Jolla, Calif., USA). Statistical significance among groups was determined by one-way ANOVA, and pairs were compared by Tukey's multi-comparison test. Survival groups were compared using a Mantel-Cox test.

Series [3] is described as follows: PTX content in murine blood and peritoneal cavity after IP dosing. The format is in vivo. Particulars: female, FVB, mouse, mice, IP 5 mg/kg, 3 hours post dosing. Here is the method: Six week-old female FVB mice were obtained from Charles River Laboratory (Boston, USA). Mice were housed in a pathogen-free facility in accordance with the standards of the Dana-Farber Cancer Institute. All animal experiments were approved by the Institute's IACUC. Mice were kept in groups of 4-5 per cage in a 12 hour light/12 hour dark cycle and housed at 25° C. with 50% relative humidity. […] Mice were anaesthetized, and blood samples were collected via retro-orbital bleeding 3 hours post dosing. Blood samples were kept on ice until centrifugation. Samples were centrifuged at 1,400 RCF for 10 min, and plasma was collected. After blood sample collection, mice were sacrificed, and their peritoneal cavities were washed thrice post-mortem with PBS. Plasma and peritoneal washes were flash frozen with liquid nitrogen and lyophilized. The lyophilized powders were rehydrated in 300 μL water and extracted with tert-butyl methyl ether (tBME). The organic solvent was dried under nitrogen.

Series [4] relates to BR5FVB1-Akt (murine ovarian cancer). Nature of the series: PTX cytotoxicity, MTT assay, BR5FVB1-Akt. The format is cell-based. To be noted: Mus musculus, 72 hours. Here is the method:
as §1, §2

The term IC50 denotes the concentration at which inhibition is half-maximal. High values mean weaker potency, low ones greater potency.

Take `COc1cccc2c1C(=O)c1c(O)c3c(c(O)c1C2=O)C[C@@](O)(C(=O)CO)C[C@@H]3O[C@H]1C[C@H](N)[C@H](O)[C@H](C)O1` [Dox in solution, doxorubicin]: in the series on 4T1 cells, the viability of cells result is on record as “reduced viability of cells”.

With `CC(=O)O[C@H]1C(=O)[C@@]2(C)[C@H]([C@H](OC(=O)c3ccccc3)[C@]3(O)C[C@H](OC(=O)[C@H](O)[C@@H](NC(=O)c4ccccc4)c4ccccc4)C(C)=C1C3(C)C)[C@]1(OC(C)=O)CO[C@@H]1C[C@@H]2O` [PTX, paclitaxel], the IC50 in series [1] is around 10 nM; in series [2], around 10 nM; in series [4], around 100 nM. Further, in the series on BR5FVB1-Akt cells, the tumor onset result is given as “developed tumors at similar time points”. For the same compound, the concentration at 3 h in series [3] (peritoneal lavage (PBS wash of peritoneal cavity)) was 4500 ± 1300 ng/mL; in series [3] (plasma), 9500 ± 1900 ng/mL.
